Results taken from ChEMBL document CHEMBL4043269, “Synthesis and structure activity relationships of carbamimidoylcarbamate derivatives as novel vascular adhesion protein-1 inhibitors” (Bioorg Med Chem, 2017).

Columns and labels:
[1] = test system: Rattus norvegicus; assay: In vivo inhibition of VAP-1 in Wistar rat plasma at 0.3 mg/kg, po after 6 hrs in presence of [14C]-benzylamine by liquid scintillation counting analysis relative to control; format: functional
[2] = Aqueous solubility of compound in Japanese pharmacopoeia second fluid at pH 6.8 at 130 uM after 20 hrs by HPLC analysis; format: physicochemical
[3] = target: T1, CYP1A2 (Homo sapiens, UniProt P05177); assay: Inhibition of CYP1A2 in human liver microsomes using phenacetin as substrate assessed as residual activity at 5 uM after 20 mins by HPLC analysis; format: ADME; conditions: probe phenacetin, read-out: Activity
T1 sequence (P05177 whole entry): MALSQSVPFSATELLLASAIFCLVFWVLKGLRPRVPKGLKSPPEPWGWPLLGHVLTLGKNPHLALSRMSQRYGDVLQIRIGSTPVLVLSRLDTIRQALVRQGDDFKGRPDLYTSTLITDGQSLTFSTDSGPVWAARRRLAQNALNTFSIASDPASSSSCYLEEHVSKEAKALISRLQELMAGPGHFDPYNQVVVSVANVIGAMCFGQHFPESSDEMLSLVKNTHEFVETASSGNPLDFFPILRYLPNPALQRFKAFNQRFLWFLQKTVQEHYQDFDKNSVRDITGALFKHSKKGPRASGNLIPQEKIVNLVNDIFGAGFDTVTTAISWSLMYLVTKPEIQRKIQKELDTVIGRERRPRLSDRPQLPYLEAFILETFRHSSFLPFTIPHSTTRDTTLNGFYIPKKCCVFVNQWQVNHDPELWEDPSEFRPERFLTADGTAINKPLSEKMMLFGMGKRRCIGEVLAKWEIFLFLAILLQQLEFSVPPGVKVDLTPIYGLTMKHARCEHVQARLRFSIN

[4] = target: T2, CYP2C8 (Homo sapiens, UniProt P10632); assay: Inhibition of CYP2C8 in human liver microsomes using amodiaquine as substrate assessed as residual activity at 5 uM after 20 mins by HPLC analysis; format: ADME; conditions: probe amodiaquine, read-out: Activity
T2 sequence (P10632 whole entry): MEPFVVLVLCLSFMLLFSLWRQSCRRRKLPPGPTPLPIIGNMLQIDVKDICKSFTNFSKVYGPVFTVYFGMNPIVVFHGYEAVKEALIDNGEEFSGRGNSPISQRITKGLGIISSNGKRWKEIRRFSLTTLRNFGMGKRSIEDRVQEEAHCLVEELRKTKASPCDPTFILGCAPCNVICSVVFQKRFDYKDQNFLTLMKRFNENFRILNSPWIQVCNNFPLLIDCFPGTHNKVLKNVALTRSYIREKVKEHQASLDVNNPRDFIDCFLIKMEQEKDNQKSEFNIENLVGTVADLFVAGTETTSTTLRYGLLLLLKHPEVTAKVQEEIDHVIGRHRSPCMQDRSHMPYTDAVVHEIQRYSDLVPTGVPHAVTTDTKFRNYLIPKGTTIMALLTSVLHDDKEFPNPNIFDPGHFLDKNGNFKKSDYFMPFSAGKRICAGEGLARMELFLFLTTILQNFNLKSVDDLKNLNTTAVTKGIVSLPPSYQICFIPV

[5] = target: CYP2C19 (Homo sapiens, UniProt P33261); assay: Inhibition of CYP2C19 in human liver microsomes using S-mephenytoin as substrate assessed as residual activity at 5 uM after 20 mins by HPLC analysis; format: ADME; conditions: probe S-mephenytoin, read-out: Activity
[6] = target: CYP2D6 (Homo sapiens, UniProt P10635); assay: Inhibition of CYP2D6 in human liver microsomes using dextromethorphan as substrate assessed as residual activity at 5 uM after 20 mins by HPLC analysis; format: ADME; conditions: probe dextromethorphan, read-out: Activity
[7] = target: CYP3A4 (Homo sapiens, UniProt P08684); assay: Inhibition of CYP3A4 in human liver microsomes using midazolam as substrate assessed as residual activity at 5 uM after 20 mins by HPLC analysis; format: ADME; conditions: probe midazolam, read-out: Activity
[8] = test system: Rattus norvegicus; assay: In vivo inhibition of VAP-1 in Wistar rat plasma at 0.3 mg/kg, po after 1 hr in presence of [14C]-benzylamine by liquid scintillation counting analysis relative to control; format: functional
[9] = AUC in Beagle dog at 0.2 mg/kg, iv by LC-MS/MS analysis; format: ADME, organism-based, Canis lupus familiaris; conditions: in vivo
[10] = Half life in Beagle dog at 0.2 mg/kg, iv by LC-MS/MS analysis; format: ADME, organism-based, Canis lupus familiaris; conditions: in vivo
[11] = AUC in Sprague-Dawley rat at 1 mg/kg, iv by LC-MS/MS analysis; format: ADME, organism-based; conditions: in vivo
[12] = Half life in Sprague-Dawley rat at 1 mg/kg, iv by LC-MS/MS analysis; format: ADME, organism-based; conditions: in vivo
[13] = Volume of distribution at steady state in Sprague-Dawley rat at 1 mg/kg, iv by LC-MS/MS analysis; format: ADME, organism-based; conditions: in vivo, read-out: Vdss
[14] = Total clearance in Sprague-Dawley rat at 1 mg/kg, iv by LC-MS/MS analysis; format: ADME, organism-based; conditions: in vivo
[15] = Volume of distribution at steady state in Beagle dog at 0.2 mg/kg, iv by LC-MS/MS analysis; format: ADME, organism-based, Canis lupus familiaris; conditions: in vivo, read-out: Vdss
[16] = Total clearance in Beagle dog at 0.2 mg/kg, iv by LC-MS/MS analysis; format: ADME, organism-based, Canis lupus familiaris; conditions: in vivo
[17] = AUC in cynomolgus monkey at 0.2 mg/kg, iv by LC-MS/MS analysis; format: ADME, organism-based, Macaca fascicularis; conditions: in vivo
[18] = Half life in cynomolgus monkey at 0.2 mg/kg, iv by LC-MS/MS analysis; format: ADME, organism-based, Macaca fascicularis; conditions: in vivo
[19] = Volume of distribution at steady state in cynomolgus monkey at 0.2 mg/kg, iv by LC-MS/MS analysis; format: ADME, organism-based, Macaca fascicularis; conditions: in vivo, read-out: Vdss
[20] = Total clearance in cynomolgus monkey at 0.2 mg/kg, iv by LC-MS/MS analysis; format: ADME, organism-based, Macaca fascicularis; conditions: in vivo
[21] = AUC in Sprague-Dawley rat at 1 mg/kg, po by LC-MS/MS analysis; format: ADME, organism-based; conditions: in vivo
[22] = AUC in Beagle dog at 0.2 mg/kg, po by LC-MS/MS analysis; format: ADME, organism-based, Canis lupus familiaris; conditions: in vivo
[23] = AUC in cynomolgus monkey at 0.2 mg/kg, po by LC-MS/MS analysis; format: ADME, organism-based, Macaca fascicularis; conditions: in vivo
[24] = Cmax in Sprague-Dawley rat at 1 mg/kg, po by LC-MS/MS analysis; format: ADME, organism-based; parameters: dose 1 mg/kg, route oral; conditions: in vivo
[25] = Cmax in Beagle dog at 0.2 mg/kg, po by LC-MS/MS analysis; format: ADME, organism-based, Canis lupus familiaris; parameters: dose 0.2 mg/kg, route oral; conditions: in vivo
[26] = Cmax in cynomolgus monkey at 0.2 mg/kg, po by LC-MS/MS analysis; format: ADME, organism-based, Macaca fascicularis; parameters: dose 0.2 mg/kg, route oral; conditions: in vivo
[27] = Tmax in Sprague-Dawley rat at 1 mg/kg, po by LC-MS/MS analysis; format: ADME, organism-based; conditions: in vivo
[28] = Tmax in Beagle dog at 0.2 mg/kg, po by LC-MS/MS analysis; format: ADME, organism-based, Canis lupus familiaris; conditions: in vivo
[29] = Tmax in cynomolgus monkey at 0.2 mg/kg, po by LC-MS/MS analysis; format: ADME, organism-based, Macaca fascicularis; conditions: in vivo
[30] = Oral bioavailability in Sprague-Dawley rat at 1 mg/kg by LC-MS/MS analysis; format: ADME, organism-based; conditions: in vivo
[31] = Oral bioavailability in Beagle dog at 0.2 mg/kg by LC-MS/MS analysis; format: ADME, organism-based, Canis lupus familiaris; conditions: in vivo
[32] = Oral bioavailability in cynomolgus monkey at 0.2 mg/kg by LC-MS/MS analysis; format: ADME, organism-based, Macaca fascicularis; conditions: in vivo

Chain of CYP2D6 (P10635 whole entry): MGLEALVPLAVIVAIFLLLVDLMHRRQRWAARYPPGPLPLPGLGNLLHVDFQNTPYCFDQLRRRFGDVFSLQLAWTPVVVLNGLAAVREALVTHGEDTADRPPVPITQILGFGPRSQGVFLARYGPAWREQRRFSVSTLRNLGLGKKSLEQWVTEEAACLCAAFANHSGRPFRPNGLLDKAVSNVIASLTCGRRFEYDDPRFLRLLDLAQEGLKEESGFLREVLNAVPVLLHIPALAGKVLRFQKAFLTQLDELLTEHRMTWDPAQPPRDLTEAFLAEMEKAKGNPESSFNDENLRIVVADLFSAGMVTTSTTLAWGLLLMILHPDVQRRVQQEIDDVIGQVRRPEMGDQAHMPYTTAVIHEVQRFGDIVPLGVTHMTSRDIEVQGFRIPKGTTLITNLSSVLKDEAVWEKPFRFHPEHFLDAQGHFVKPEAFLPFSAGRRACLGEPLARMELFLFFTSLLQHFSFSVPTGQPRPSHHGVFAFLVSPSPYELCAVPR
Chain of CYP3A4 (P08684 whole entry): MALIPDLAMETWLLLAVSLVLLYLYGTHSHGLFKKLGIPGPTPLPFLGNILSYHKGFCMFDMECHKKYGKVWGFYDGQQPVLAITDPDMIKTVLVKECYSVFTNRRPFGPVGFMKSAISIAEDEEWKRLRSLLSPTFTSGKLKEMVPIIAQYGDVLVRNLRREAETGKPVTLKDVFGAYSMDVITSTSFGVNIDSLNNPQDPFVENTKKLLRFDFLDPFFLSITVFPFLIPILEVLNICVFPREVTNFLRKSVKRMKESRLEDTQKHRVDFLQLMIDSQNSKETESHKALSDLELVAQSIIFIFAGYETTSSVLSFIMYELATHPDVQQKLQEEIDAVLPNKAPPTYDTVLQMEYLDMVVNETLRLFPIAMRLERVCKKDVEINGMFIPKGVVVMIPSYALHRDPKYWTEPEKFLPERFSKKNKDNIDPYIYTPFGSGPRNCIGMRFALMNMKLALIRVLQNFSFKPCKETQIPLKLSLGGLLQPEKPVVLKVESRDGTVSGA
Chain of CYP2C19 (P33261 whole entry): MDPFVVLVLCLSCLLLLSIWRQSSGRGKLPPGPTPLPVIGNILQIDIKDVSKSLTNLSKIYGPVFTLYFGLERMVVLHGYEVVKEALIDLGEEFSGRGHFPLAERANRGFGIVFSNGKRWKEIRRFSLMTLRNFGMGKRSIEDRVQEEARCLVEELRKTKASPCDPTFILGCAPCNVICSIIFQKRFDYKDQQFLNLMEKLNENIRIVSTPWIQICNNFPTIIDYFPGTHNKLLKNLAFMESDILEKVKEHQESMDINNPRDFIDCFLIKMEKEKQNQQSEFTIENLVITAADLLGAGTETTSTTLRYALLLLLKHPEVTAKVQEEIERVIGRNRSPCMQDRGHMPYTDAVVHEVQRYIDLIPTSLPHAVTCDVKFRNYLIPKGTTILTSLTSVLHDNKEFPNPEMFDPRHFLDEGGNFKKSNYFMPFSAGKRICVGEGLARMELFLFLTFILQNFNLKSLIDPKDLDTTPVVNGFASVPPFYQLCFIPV

Cc1ccc(OC2CN(c3cccc(COC(=O)NC(=N)N)c3F)C2)cn1.O=C(O)C(O)C(O)C(=O)O
inhibition in vivo at 0.3 mg/kg [1]: 74% | solubility at 20 h, 130 µM [2]: ≥ 100 µM | activity at 20 min, 5 µM [3]: 99% | activity at 20 min, 5 µM [4]: 91% | activity at 20 min, 5 µM [5]: 99% | activity at 20 min, 5 µM [6]: 95% | activity at 20 min, 5 µM [7]: 85% | inhibition in vivo at 0.3 mg/kg [8]: 92% | AUC [9]: 380 ng·h/mL | half-life [10]: 8.9 h | AUC [11]: 3200 ng·h/mL | half-life [12]: 3.3 h | Vd [13]: 1.06 L/kg | clearance [14]: 5.2 mL/min/kg | Vd [15]: 4.43 L/kg | clearance [16]: 8.9 mL/min/kg | AUC [17]: 5350 ng·h/mL | half-life [18]: 64 h | Vd [19]: 1.39 L/kg | clearance [20]: 0.7 mL/min/kg | AUC [21]: 2320 ng·h/mL | AUC [22]: 297 ng·h/mL | AUC [23]: 4510 ng·h/mL | Cmax [24]: 401 ng/mL | Cmax [25]: 29.9 ng/mL | Cmax [26]: 201 ng/mL | Tmax [27]: 0.8 h | Tmax [28]: 0.8 h | Tmax [29]: 2.7 h | bioavailability [30]: 73% | bioavailability [31]: 78% | bioavailability [32]: 85%
